This passage reports T/C results from PubChem BioAssay AID180 (DTP/NCI, 2004).

Several values for one entry are separate records, joined by “and”; a condition that tells them apart may be missing. Equal entries are not always repeated. Non-standard residues stand in square brackets, D forms with d. Residues, ends and D or L forms follow the SMILES beside them. ξ: configuration not given here. Ac5c = NC1(C(=O)O)CCCC1; ξS = NC(CO)C(=O)O

In the experiment the test system is BDF1 mice, Adenocarcinoma 755 s.c., tumor weight T/C. Description: NCI In Vivo Anticancer Drug Screen. Data for tumor model Adenocarcinoma 755 (subcutaneous) in B6D2F1 (BDF1) mice. The note with it: endpoint: mean tumor weight, higher = larger tumour. An outline of the steps:
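Transplantable tumor implanted; mice dosed with compound or vehicle; survival or tumor size recorded; ratio of treated to vehicle control reported.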

[1] abbreviates: dose: 31.0 mg/kg/injection, schedule: Q01DX011 (ip), vehicle: methylcellulose (MC).
[2] abbreviates: dose: 62.0 mg/kg/injection, schedule: Q01DX011 (ip), vehicle: methylcellulose (MC).
Where [3] appears, read: dose: 125.0 mg/kg/injection, schedule: Q01DX011 (ip), vehicle: methylcellulose (MC).
The mark [4] stands for this setting: dose: 250.0 mg/kg/injection, schedule: Q01DX011 (ip), vehicle: methylcellulose (MC).
The mark [5] stands for this setting: dose: 25.0 mg/kg/injection, schedule: Q01DX011 (ip), vehicle: methylcellulose (MC).
Setting [6] is: dose: 5.0 mg/kg/injection, schedule: Q01DX011 (ip), vehicle: carboxymethylcellulose (CMC).
Where [7] appears, read: dose: 15.0 mg/kg/injection, schedule: Q01DX011 (ip), vehicle: methylcellulose (MC).

For the compound `O=[N+]([O-])O.[Ga]`, the T/C (commonly the result in the treated group divided by that in the control group, in per cent) runs as follows: (dose: 12.5 mg/kg/injection, schedule: Q01DX011 (ip), vehicle: saline) 20 % of control; (dose: 25.0 mg/kg/injection, schedule: Q01DX011 (ip), vehicle: saline) 24 % of control; (dose: 50.0 mg/kg/injection, schedule: Q01DX011 (ip), vehicle: saline) 7 % of control.

Turning to `CCOP(=O)(OCC)OCC1OC(n2cnc3c(=S)nc[nH]c32)C(O)C1O` (stereo not drawn), the T/C was 50 % of control (dose: 4.0 mg/kg/injection, schedule: Q01DX011 (ip), vehicle: methylcellulose (MC)); 49 % of control (dose: 8.0 mg/kg/injection, schedule: Q01DX011 (ip), vehicle: methylcellulose (MC)); 56 % of control (dose: 16.0 mg/kg/injection, schedule: Q01DX011 (ip), vehicle: methylcellulose (MC)); 33 % of control under setting [1]; 46 % of control under setting [2]; 7 % of control under setting [3].

In the case of `Cc1cnc(SCc2ccc(Cl)cc2Cl)[nH]c1=O`, the T/C is 110 % of control under setting [1], 113 % of control under setting [2], 82 % of control under setting [3] and 99 % of control under setting [4].

For the compound `OCCn1cnc2c(=S)nc[nH]c21`, the T/C by setting is: under setting [5], 38 % of control; (dose: 75.0 mg/kg/injection, schedule: Q01DX011 (ip), vehicle: methylcellulose (MC)) 74 % of control; (dose: 225.0 mg/kg/injection, schedule: Q01DX011 (ip), vehicle: methylcellulose (MC)) 34 % of control.

On to `O=[As]O`, for which the T/C by setting is: (dose: 0.12 mg/kg/injection, schedule: Q01DX011 (ip), vehicle: carboxymethylcellulose (CMC)) 116 % of control; (dose: 0.25 mg/kg/injection, schedule: Q01DX011 (ip), vehicle: carboxymethylcellulose (CMC)) 86 % of control; (dose: 0.5 mg/kg/injection, schedule: Q01DX011 (ip), vehicle: carboxymethylcellulose (CMC)) 98 % of control; (dose: 1.0 mg/kg/injection, schedule: Q01DX011 (ip), vehicle: carboxymethylcellulose (CMC)) 77 % of control; (dose: 1.63 mg/kg/injection, schedule: Q01DX011 (ip), vehicle: carboxymethylcellulose (CMC)) 70 % of control; (dose: 2.0 mg/kg/injection, schedule: Q01DX011 (ip), vehicle: carboxymethylcellulose (CMC)) 19 % of control. For the same compound, the T/C is, setting by setting: (dose: 2.0 mg/kg/injection, schedule: Q01DX011 (ip), vehicle: methylcellulose (MC)) 66 % of control; (dose: 3.15 mg/kg/injection, schedule: Q01DX011 (ip), vehicle: carboxymethylcellulose (CMC)) 124 % of control; (dose: 3.25 mg/kg/injection, schedule: Q01DX011 (ip), vehicle: carboxymethylcellulose (CMC)) 72 % of control; under setting [6], 21 % of control; (dose: 5.0 mg/kg/injection, schedule: Q01DX011 (ip), vehicle: methylcellulose (MC)) 52 % of control; (dose: 6.3 mg/kg/injection, schedule: Q01DX011 (ip), vehicle: carboxymethylcellulose (CMC)) 67 % of control. Besides, the T/C was 63 % of control and 70 % of control (dose: 8.66 mg/kg/injection, schedule: Q01DX011 (ip), vehicle: carboxymethylcellulose (CMC)); 67 % of control (dose: 12.6 mg/kg/injection, schedule: Q01DX011 (ip), vehicle: carboxymethylcellulose (CMC)); 28 % of control and 35 % of control (dose: 13.0 mg/kg/injection, schedule: Q01DX011 (ip), vehicle: carboxymethylcellulose (CMC)).

With `NC1(C(=O)O)CCCC1`, the T/C by setting is: (dose: 4.45 mg/kg/injection, schedule: Q01DX011 (ip), vehicle: carboxymethylcellulose (CMC)) 71 % of control; (dose: 7.5 mg/kg/injection, schedule: Q01DX011 (ip), vehicle: methylcellulose (MC)) 61 % of control; (dose: 8.9 mg/kg/injection, schedule: Q01DX011 (ip), vehicle: carboxymethylcellulose (CMC)) 70 % of control; (dose: 13.12 mg/kg/injection, schedule: Q01DX011 (ip), vehicle: carboxymethylcellulose (CMC)) 42 % of control; (dose: 14.24 mg/kg/injection, schedule: Q01DX011 (ip), vehicle: carboxymethylcellulose (CMC)) 83 % of control; under setting [7], 96 % of control. The T/C reads like this: (dose: 16.0 mg/kg/injection, schedule: Q01DX011 (ip), vehicle: saline) 43 % of control; (dose: 18.0 mg/kg/injection, schedule: Q01DX011 (ip), vehicle: methylcellulose (MC)) 40 % of control; (dose: 23.73 mg/kg/injection, schedule: Q01DX011 (ip), vehicle: carboxymethylcellulose (CMC)) 55 % of control; (dose: 30.0 mg/kg/injection, schedule: Q01DX011 (ip), vehicle: methylcellulose (MC)) 12 % of control; (dose: 31.3 mg/kg/injection, schedule: Q01DX011 (ip), vehicle: saline) 13 % of control; (dose: 35.6 mg/kg/injection, schedule: Q01DX011 (ip), vehicle: carboxymethylcellulose (CMC)) 33 % of control and 38 % of control. Further, the T/C is 16 % of control (dose: 37.5 mg/kg/injection, schedule: Q01DX011 (ip), vehicle: methylcellulose (MC)); 31 % of control (dose: 42.0 mg/kg/injection, schedule: Q01DX011 (ip), vehicle: carboxymethylcellulose (CMC)); 10 % of control (dose: 42.0 mg/kg/injection, schedule: Q01DX011 (oral), vehicle: saline); 8 % of control and 14 % of control (dose: 52.5 mg/kg/injection, schedule: Q01DX011 (ip), vehicle: carboxymethylcellulose (CMC)); 12 % of control (dose: 60.0 mg/kg/injection, schedule: Q01DX011 (ip), vehicle: methylcellulose (MC)); 6 % of control (dose: 62.5 mg/kg/injection, schedule: Q01DX011 (ip), vehicle: saline). Further, the T/C is, setting by setting: (dose: 63.0 mg/kg/injection, schedule: Q01DX011 (oral), vehicle: saline) 4 % of control; (dose: 70.0 mg/kg/injection, schedule: Q01DX011 (ip), vehicle: carboxymethylcellulose (CMC)) 4 % of control; (dose: 95.0 mg/kg/injection, schedule: Q01DX011 (oral), vehicle: saline) 1 % of control; (dose: 105.0 mg/kg/injection, schedule: Q01DX011 (ip), vehicle: carboxymethylcellulose (CMC)) 3 % of control and 6 % of control.

For `CN(C)c1nc(Cl)nc2c1nc(Cl)n2C1CCCCO1` (stereo not drawn), the T/C is, setting by setting: (dose: 30.0 mg/kg/injection, schedule: Q01DX011 (ip), vehicle: carboxymethylcellulose (CMC)) 102 % of control; (dose: 60.0 mg/kg/injection, schedule: Q01DX011 (ip), vehicle: carboxymethylcellulose (CMC)) 85 % of control; (dose: 120.0 mg/kg/injection, schedule: Q01DX011 (ip), vehicle: carboxymethylcellulose (CMC)) 68 % of control.

Take `NC(CO)C(=O)NC1(C(=O)O)CCCC1` (stereo not drawn) (H-[ξS]-[Ac5c]-OH): the T/C is, setting by setting: (dose: 45.0 mg/kg/injection, schedule: Q01DX011 (ip), vehicle: carboxymethylcellulose (CMC)) 62 % of control; (dose: 90.0 mg/kg/injection, schedule: Q01DX011 (ip), vehicle: carboxymethylcellulose (CMC)) 12 % of control; (dose: 180.0 mg/kg/injection, schedule: Q01DX011 (ip), vehicle: carboxymethylcellulose (CMC)) 5 % of control.

In the case of `COC12C(COC(N)=O)C3=C(C(=O)C(C)=C(N)C3=O)N1CC1C2N1C` (stereo not drawn), the T/C is, setting by setting: (dose: 1.25 mg/kg/injection, schedule: Q01DX011 (ip), vehicle: carboxymethylcellulose (CMC)) 62 % of control; (dose: 2.5 mg/kg/injection, schedule: Q01DX011 (ip), vehicle: carboxymethylcellulose (CMC)) 52 % of control; under setting [6], 27 % of control; (dose: 10.0 mg/kg/injection, schedule: Q01DX011 (ip), vehicle: carboxymethylcellulose (CMC)) 3 % of control and 7 % of control.

In the case of `Nc1nc(SCc2ccccc2F)c2ncn(C3OC(CO)C(O)C3O)c2n1` (stereo not drawn), the T/C is 106 % of control (dose: 1.5 mg/kg/injection, schedule: Q01DX011 (ip), vehicle: methylcellulose (MC)); 41 % of control (dose: 3.1 mg/kg/injection, schedule: Q01DX011 (ip), vehicle: methylcellulose (MC)); 7 % of control and 14 % of control (dose: 6.2 mg/kg/injection, schedule: Q01DX011 (ip), vehicle: methylcellulose (MC)); 1 % of control (dose: 12.5 mg/kg/injection, schedule: Q01DX011 (ip), vehicle: methylcellulose (MC)); 5 % of control under setting [5].

For `CC1CN(Cc2ccccc2)C(=S)N(c2ccccc2)C1=O` (stereo not drawn), the T/C was 87 % of control under setting [7]; 74 % of control under setting [1]; 96 % of control under setting [2]; 97 % of control under setting [3]; 82 % of control under setting [4].
